Experimental data reported in ChEMBL document CHEMBL1201862, “PubChem BioAssay data set” (2004).
Calls of active or inactive are those of the source.

What was measured:
Paired box protein Pax-8 = Paired box protein Pax-8 (Homo sapiens, UniProt Q06710); assay: PAX8 transcriptional activity inhibition in RMG-I – RMG-I cells, luciferase, cherry-pick, dose response (AID 687027); assay type: functional, cell-based;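 also: luciferase reporter driven by Pax8 target thyroperoxidase promoter measured by SteadyGlo luminescence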
Chain of Paired box protein Pax-8 (Q06710 whole entry): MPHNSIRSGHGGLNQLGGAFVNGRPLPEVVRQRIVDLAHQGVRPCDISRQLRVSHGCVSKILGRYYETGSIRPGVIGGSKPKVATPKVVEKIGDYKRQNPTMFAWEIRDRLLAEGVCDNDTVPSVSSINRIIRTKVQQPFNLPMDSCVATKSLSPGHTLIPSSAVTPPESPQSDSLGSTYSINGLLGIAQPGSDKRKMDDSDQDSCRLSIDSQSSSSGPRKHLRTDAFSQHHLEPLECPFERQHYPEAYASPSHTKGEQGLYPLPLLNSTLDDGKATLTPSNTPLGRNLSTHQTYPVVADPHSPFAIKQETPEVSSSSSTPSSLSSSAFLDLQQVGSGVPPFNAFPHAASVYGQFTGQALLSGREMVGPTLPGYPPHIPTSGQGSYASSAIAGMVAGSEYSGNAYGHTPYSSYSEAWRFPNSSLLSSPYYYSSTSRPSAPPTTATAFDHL

[1] = OVCAR-3 cell viability loss – plate reader, dry powder samples, PAX8 inhibitor project, dose response (AID 743044); assay type: functional, cell-based
[2] = IGROV1 cell killing – plate reader, dry powder samples, PAX8 inhibitor project, dose response (AID 743043); assay type: functional, cell-based; settings: IGROV-1
[3] = OVCAR8 cell viability loss – plate reader, dry powder samples, PAX8 project, dose response (AID 743197); assay type: functional, cell-based; settings: OVCAR-8
Nonstructural protein 1 = Nonstructural protein 1 (Influenza A virus, UniProt Q194T2); assay type: functional, Influenza A virus (A/California/07/2009(H1N1))
Chain of Nonstructural protein 1 (Q194T2 whole entry): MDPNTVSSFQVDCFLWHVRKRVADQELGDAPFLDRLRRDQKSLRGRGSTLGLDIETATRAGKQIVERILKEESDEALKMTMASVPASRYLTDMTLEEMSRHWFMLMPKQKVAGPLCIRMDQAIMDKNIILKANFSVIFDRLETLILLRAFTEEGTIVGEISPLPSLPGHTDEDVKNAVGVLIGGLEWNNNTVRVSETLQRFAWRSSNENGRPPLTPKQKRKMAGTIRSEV

[4] = target: T1, Histone-lysine N-methyltransferase NSD2 (Homo sapiens, UniProt O96028); assay type: biochemical
T1 sequence (O96028 whole entry): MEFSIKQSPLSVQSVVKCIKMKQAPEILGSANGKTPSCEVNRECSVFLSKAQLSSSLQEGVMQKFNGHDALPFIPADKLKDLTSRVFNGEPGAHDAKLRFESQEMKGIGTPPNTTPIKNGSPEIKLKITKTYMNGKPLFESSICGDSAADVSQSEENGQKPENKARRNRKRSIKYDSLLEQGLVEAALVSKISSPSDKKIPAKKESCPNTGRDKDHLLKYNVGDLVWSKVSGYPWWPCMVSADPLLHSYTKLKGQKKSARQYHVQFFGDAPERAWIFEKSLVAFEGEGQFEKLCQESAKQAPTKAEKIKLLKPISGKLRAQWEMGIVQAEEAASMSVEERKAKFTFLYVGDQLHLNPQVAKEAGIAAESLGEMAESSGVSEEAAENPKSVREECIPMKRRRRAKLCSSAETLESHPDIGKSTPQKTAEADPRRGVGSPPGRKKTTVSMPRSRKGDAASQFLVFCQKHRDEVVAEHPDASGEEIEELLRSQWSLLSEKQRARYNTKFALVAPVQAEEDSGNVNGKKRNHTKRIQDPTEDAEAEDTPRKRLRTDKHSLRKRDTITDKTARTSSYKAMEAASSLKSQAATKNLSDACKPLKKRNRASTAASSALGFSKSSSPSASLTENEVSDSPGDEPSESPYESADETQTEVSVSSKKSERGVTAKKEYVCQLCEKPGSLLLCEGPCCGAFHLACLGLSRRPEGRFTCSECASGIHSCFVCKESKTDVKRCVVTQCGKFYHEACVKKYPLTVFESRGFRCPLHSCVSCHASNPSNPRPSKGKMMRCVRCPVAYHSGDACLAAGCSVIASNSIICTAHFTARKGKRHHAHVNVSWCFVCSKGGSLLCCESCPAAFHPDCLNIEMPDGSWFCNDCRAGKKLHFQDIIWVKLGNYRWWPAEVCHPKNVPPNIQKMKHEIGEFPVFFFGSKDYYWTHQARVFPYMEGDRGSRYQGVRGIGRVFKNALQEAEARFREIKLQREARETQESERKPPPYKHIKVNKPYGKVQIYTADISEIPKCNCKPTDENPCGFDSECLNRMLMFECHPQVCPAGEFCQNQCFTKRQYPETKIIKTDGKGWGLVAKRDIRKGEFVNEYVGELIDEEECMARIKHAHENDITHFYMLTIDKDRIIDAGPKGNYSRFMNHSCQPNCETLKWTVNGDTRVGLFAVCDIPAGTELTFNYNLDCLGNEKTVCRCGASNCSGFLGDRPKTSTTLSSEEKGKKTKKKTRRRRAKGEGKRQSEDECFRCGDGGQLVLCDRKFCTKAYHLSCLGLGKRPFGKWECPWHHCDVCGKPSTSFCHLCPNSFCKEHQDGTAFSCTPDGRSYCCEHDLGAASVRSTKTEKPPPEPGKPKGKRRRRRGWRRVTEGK

Cytochrome P450 3A4 = Cytochrome P450 3A4 (Homo sapiens, UniProt P08684); settings: Potency;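 also: confirmatory qHTS run detecting inhibitors and substrates of CYP3A4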
Chain of Cytochrome P450 3A4 (P08684 whole entry): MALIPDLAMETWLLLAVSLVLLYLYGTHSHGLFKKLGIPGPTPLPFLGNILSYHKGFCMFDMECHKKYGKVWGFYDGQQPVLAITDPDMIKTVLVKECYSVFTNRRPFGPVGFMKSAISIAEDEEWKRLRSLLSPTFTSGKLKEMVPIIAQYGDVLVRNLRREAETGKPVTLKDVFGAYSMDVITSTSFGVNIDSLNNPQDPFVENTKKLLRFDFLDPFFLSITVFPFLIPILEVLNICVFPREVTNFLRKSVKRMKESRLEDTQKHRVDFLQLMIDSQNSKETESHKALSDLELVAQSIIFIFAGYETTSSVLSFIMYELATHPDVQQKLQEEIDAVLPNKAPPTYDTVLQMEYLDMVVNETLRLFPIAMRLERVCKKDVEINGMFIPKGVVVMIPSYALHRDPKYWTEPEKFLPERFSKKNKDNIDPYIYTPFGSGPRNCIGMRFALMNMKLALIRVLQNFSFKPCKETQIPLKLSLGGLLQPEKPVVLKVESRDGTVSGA

[5] = target: Voltage-gated inwardly rectifying potassium channel KCNH2 (Homo sapiens, UniProt Q12809); settings: Potency;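 also: confirmatory quantitative high-throughput screen measuring inhibition of hERG channel activity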
Chain of Voltage-gated inwardly rectifying potassium channel KCNH2 (Q12809 whole entry): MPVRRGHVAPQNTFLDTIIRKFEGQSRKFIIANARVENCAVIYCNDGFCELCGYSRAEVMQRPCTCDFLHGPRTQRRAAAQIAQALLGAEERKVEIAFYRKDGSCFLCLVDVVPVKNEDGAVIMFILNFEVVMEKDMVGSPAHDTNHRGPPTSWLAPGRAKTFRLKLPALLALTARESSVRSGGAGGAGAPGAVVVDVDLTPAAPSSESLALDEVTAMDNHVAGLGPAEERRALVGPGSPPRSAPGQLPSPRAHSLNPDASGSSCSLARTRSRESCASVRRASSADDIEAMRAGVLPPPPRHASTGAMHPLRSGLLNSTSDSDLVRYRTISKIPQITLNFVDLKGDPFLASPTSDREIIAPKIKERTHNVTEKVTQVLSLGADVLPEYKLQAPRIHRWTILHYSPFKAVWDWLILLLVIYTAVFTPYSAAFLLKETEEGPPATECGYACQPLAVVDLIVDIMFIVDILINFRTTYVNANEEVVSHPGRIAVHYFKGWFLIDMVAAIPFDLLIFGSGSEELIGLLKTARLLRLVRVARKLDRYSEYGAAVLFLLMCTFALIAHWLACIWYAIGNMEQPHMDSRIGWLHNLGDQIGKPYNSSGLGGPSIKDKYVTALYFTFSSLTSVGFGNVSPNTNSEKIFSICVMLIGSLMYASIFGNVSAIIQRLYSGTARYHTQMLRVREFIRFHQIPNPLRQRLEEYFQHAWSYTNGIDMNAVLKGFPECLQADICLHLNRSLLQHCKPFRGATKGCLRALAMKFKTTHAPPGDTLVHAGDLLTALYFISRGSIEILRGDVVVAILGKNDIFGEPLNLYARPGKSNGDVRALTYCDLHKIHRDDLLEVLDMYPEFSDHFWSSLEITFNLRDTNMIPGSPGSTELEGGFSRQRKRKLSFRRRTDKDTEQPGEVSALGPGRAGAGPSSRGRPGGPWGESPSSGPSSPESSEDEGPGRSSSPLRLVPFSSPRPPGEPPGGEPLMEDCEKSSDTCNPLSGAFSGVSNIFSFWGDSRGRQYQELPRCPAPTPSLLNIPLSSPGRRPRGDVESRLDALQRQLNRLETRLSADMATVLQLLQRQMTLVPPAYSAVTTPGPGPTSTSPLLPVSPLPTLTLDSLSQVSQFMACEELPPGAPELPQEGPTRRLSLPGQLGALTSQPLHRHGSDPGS

[6] = target: T2, Short transient receptor potential channel 4 (Mus musculus, UniProt Q9QUQ5); assay: calcium entry via TRPC4 opening agents – cell-based, HEK293 TRPC4/mu-opioid, Fluo-4 calcium, dose response (AID 434937); assay type: functional
T2 sequence (Q9QUQ5 whole entry): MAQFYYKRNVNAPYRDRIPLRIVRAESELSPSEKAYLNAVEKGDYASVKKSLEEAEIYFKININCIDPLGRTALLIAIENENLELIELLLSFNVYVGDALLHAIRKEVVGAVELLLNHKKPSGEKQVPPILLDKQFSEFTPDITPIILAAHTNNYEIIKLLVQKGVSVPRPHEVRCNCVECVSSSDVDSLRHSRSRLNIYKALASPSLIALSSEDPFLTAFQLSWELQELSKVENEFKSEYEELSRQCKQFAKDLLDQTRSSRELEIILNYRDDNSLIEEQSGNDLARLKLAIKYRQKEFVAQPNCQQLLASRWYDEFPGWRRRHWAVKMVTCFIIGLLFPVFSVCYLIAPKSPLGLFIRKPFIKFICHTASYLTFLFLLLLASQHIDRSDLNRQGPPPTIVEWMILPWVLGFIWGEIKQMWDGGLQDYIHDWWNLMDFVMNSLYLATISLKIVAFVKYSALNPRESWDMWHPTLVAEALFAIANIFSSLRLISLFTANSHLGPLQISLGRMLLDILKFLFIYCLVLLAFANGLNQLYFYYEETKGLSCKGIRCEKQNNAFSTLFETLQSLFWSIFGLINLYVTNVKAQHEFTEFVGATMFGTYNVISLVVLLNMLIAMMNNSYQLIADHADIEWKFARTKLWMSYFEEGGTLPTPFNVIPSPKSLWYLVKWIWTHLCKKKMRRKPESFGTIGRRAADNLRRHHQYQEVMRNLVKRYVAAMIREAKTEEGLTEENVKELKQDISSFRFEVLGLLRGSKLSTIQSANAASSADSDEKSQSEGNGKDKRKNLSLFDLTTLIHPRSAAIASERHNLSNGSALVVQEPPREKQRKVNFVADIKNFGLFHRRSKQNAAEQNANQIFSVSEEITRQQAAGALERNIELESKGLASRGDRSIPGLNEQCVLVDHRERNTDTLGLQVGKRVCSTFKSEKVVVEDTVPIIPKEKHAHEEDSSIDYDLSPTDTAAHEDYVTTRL

[7] = target: Heat shock protein HSP 90-alpha (Homo sapiens, UniProt P07900); assay type: functional, organism-based
[8] = A cytotoxicity screen of small molecule inhibitors of the PhoP region in Salmonella typhi identified in the primary screen. [Related pubchem assays: 1850, 1864, 1985 ]; assay type: functional
HEK293 [9] = assay: inhibition of NOD1-driven NF-kB reporter – cell-based, luminescence, uHTS, primary screen (AID 1578); assay type: functional; settings: Homo sapiens
HEK293 [10] = assay: cells; assay type: functional, cell-based; settings: Homo sapiens
HEK293 [11] = assay: cells; assay type: functional, cell-based; settings: Homo sapiens; remark: listed apart in the source
HEK293 [12] = assay: NOD2 signaling inhibitors in MDP-stimulated cells, cell-based, uHTS, luminescence (AID 2001); assay type: functional; settings: Homo sapiens
[13] = Trypanosoma cruzi growth suppression in host cells – NIH3T3 host cells, beta-gal luminescence, confirmation (AID 2044); assay type: functional, cell-based;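 also: intracellular parasites grown in NIH/3T3 mouse fibroblasts as host cells; luminescent beta-galactosidase reporter signal from transgenic T. cruzi replicating inside host cells; inhibitors lower the luminescence signal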
[14] = NIH3T3 cell viability loss – ATP luminescence, mouse fibroblasts, counter-screen, dose response (AID 2010); assay type: functional, cell-based;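 also: cells exposed to compound for about 90 hours before reading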

## CC(C)CC#Cc1ccc2c(c1)O[C@@H](CN(C)S(=O)(=O)c1ccc(F)cc1)[C@@H](C)CN([C@@H](C)CO)S2(=O)=O
Paired box protein Pax-8
  AC50: 12.9 µM (active)
[1]
  AC50: 25.9 µM (active)
[2]
  AC50: 51.5 µM (active)
[3]
  AC50: > 70 µM (inactive)

## COC(=O)C1CCN(C2=C(NS(=O)(=O)c3ccc(Cl)cc3)C(=O)c3ccccc3C2=O)CC1
Nonstructural protein 1
  IC50: 27.4 µM (active)
[4]
  AC50: 13.1 µM (active)

## Cc1cc([N+](=O)[O-])ccc1N
Cytochrome P450 3A4
  AC50: 39.8 µM (inconclusive)
[5]
  AC50: 17.8 µM (inconclusive)

## Cc1ccc(OCC(=O)NNC(=S)NC(=O)C(C)(C)C)c(Br)c1
[6]
  EC50: 4.73 µM (active)
[7]
  AC50: 4.75 µM (active)

## Cc1c(CN(C)C)c2c(n1Cc1ccccc1)C(=O)c1ccccc1-2
[4]
  AC50: 8.45 µM (active)

## COc1ccccc1CNC(=O)Cn1c(=O)oc2cc(S(=O)(=O)N3CCCC3)ccc21
[8]
  EC50: > 50 µM (active)

## CC(C)c1ccc(S(=O)(=O)c2cc3cc(Br)ccc3oc2=O)cc1
HEK293 [9]
  EC50: > 20 µM (inactive)
HEK293 [10]
  IC50: 3.29 µM (active)
HEK293 [11]
  IC50: 10.5 µM (active)
HEK293 [12]
  IC50: 3.73 µM (active)

## CC(=O)Nc1ccc(C(=O)CCl)cc1
[5]
  AC50: 28.2 µM (inconclusive)

## CC(C)=CCc1c2c(c(O)c3c(=O)c(O)c(-c4ccccc4)oc13)C=CC(C)(C)O2 [SERICETIN]
Cytochrome P450 3A4
  AC50: 15.8 µM (inconclusive)

## CCOc1cc(CN2CCCC(CNC(=O)c3ccc(F)cc3)C2)ccc1OC (configuration not stated)
[13]
  EC50: < 100 nM (active)
[14]
  EC50: > 30 µM (not active)
cells
  EC50: 206 nM (active)

## CC1(C)CC23C(=O)CCC(O)C2(C)CCC13 (configuration not stated) [3-NOR-3-OXOPANASINSAN-6-OL]
Cytochrome P450 3A4
  AC50: 15.8 µM (inconclusive)

## O=C(Nc1cccc(F)c1)NC1CCCCC1
[8]
  EC50: > 50 µM (active)

## C[C@@H]1CN([C@H](C)CO)C(=O)c2cc(NS(=O)(=O)c3ccc(F)cc3)ccc2O[C@@H](C)CCCCO[C@H]1CN(C)Cc1ccc(C(F)(F)F)cc1
Paired box protein Pax-8
  AC50: 5.54 µM (active)
[1]
  AC50: 7.81 µM (active)
[2]
  AC50: 55.1 µM (active)
[3]
  AC50: 33.9 µM (active)
